{"source": "patent US12083304B2", "about": "“Kits for topical, isotonic compositions” (GLYCIOME, LLC, priority 2019, dated 2024)", "tested_on": "Arion lusitanicus", "experiment": "Slug Mucosal Irritation (SMI) assay", "type": "in vivo", "description": "The SMI assay uses slugs (Arion lusitanicus) as the test organism. The body wall of slugs consists of a mucosal surface comprising mucus secreting cells covering a sub epithelial connective tissue. Slugs that are placed on an irritant substance will actively produce mucus as a protective mechanism from noxious agents. Additionally, tissue damage of the slug's surface results in the release of proteins and enzymes. The protein concentration in the collected samples is determined with a protein quantitation kit.\nThe Slug Mucosal Irritation (SMI) assay was developed to predict the mucosal irritation potency of pharmaceutical formulations and ingredients. Briefly, the assay utilized the terrestrial slug Arion lusitanicus, whose body wall is a mucosal surface composed of different layers. The outer single-layered columnar epithelium contains cells with cilia, cells with microvilli, and mucus-secreting cells that cover the subepithelial connective tissue. […]\nThe method for testing the irritation potency of the formulations was evaluated by placing the slugs on 100 mg of the sample for 30 minutes daily for 3 successive days, and the amount of mucus produced was measured. […] The total mucus production (MP) percentage was calculated as a percent of the slug's body weight.", "data": [{"substance": "Nonoxynol-9", "values": [{"measurement": "Total MP (%)", "setting": "100 mg, 30 minutes daily, 3 successive days, percent of slug body weight", "value": "8.2 ± 1.2", "unit": "%"}, {"measurement": "MIP", "setting": "mucosal irritation potency class", "value": "high"}]}]}
